Data taken from the supplement of paper PMC8920030.

Assays:
Settings in all cases: growth mode: biofilm, 24 h; exposure time: 24 h
colistin [1] = compound: T1, CCC(C)CCCC(=O)N[C@@H](CCN)C(=O)N[C@H](C(=O)N[C@@H](CCN)C(=O)N[C@H]1CCNC(=O)[C@H]([C@@H](C)O)NC(=O)[C@H](CCN)NC(=O)[C@H](CCN)NC(=O)[C@H](CC(C)C)NC(=O)[C@@H](CC(C)C)NC(=O)[C@H](CCN)NC1=O)[C@@H](C)O [colistin]; experiment: minimum concentration eradicating biofilm below detection limit (MCK-E); higher = more biofilm tolerance
Experimental: (§1)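 Clinical P. aeruginosa isolates were grown as static biofilms for 24 h at 37 °C in LB in half-area 96-well plates, then exposed for 24 h to colistin at 1, 4, 16, 64, 256 or […]. Surviving CFU were counted by spotting serial dilutions. MCK is the lowest tested concentration giving the stated log reduction in CFU versus an untreated control; '>1024' means the reduction was not reached at the top dose, and 1 is the lowest dose tested (≤1).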

tobramycin [2] = compound: T2, NC[C@H]1O[C@H](O[C@H]2[C@H](O)[C@@H](O[C@H]3O[C@H](CO)[C@@H](O)[C@H](N)[C@H]3O)[C@H](N)C[C@@H]2N)[C@H](N)C[C@@H]1O [tobramycin]; experiment: as above
Experimental: as §1, with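 “tobramycin” for “colistin”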

colistin [3] = compound: T1, colistin; experiment: minimum concentration of killing, 1-log CFU reduction of biofilm (MCK90); higher = more biofilm tolerance
Experimental: as §1

colistin [4] = compound: T1, colistin; experiment: minimum concentration of killing, 2-log CFU reduction of biofilm (MCK99); higher = more biofilm tolerance
Experimental: as §1

tobramycin [5] = compound: T2, tobramycin; experiment: minimum concentration of killing, 1-log CFU reduction of biofilm (MCK90); higher = more biofilm tolerance
Experimental: as §1, with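 “tobramycin” for “colistin”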

tobramycin [6] = compound: T2, tobramycin; experiment: minimum concentration of killing, 2-log CFU reduction of biofilm (MCK99); higher = more biofilm tolerance
Experimental: as §1, with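 “tobramycin” for “colistin”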

colistin [7] = compound: T1, colistin; experiment: minimum concentration of killing, 4-log CFU reduction of biofilm (MCK99.99); higher = more biofilm tolerance
Experimental: as §1

tobramycin [8] = compound: T2, tobramycin; experiment: as above
Experimental: as §1, with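 “tobramycin” for “colistin”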

| Test System | minimum concentration eradicating biofilm below detection limit (colistin [1]) | minimum concentration eradicating biofilm below detection limit (tobramycin [2]) | minimum concentration of killing (colistin [3]) | minimum concentration of killing (colistin [4]) | minimum concentration of killing (tobramycin [5]) | minimum concentration of killing (tobramycin [6]) | minimum concentration of killing (colistin [7]) | minimum concentration of killing (tobramycin [8]) |
| --- | --- | --- | --- | --- | --- | --- | --- | --- |
| Pseudomonas aeruginosa clinical isolate ESP020 | 256 µg/mL | 256 µg/mL | 64 µg/mL | 256 µg/mL | 4 µg/mL | 256 µg/mL | 256 µg/mL | 256 µg/mL |
| Pseudomonas aeruginosa clinical isolate ESP021 | 256 µg/mL | 64 µg/mL | 16 µg/mL | 64 µg/mL | 4 µg/mL | 4 µg/mL | 256 µg/mL | 64 µg/mL |
| Pseudomonas aeruginosa clinical isolate ESP022 | 256 µg/mL | 256 µg/mL | 256 µg/mL | 256 µg/mL | 16 µg/mL | 16 µg/mL | 256 µg/mL | 16 µg/mL |
| Pseudomonas aeruginosa clinical isolate ESP023 | 64 µg/mL | 16 µg/mL | 64 µg/mL | 64 µg/mL | ≤ 1 µg/mL | 16 µg/mL | 64 µg/mL | 16 µg/mL |
| Pseudomonas aeruginosa clinical isolate ESP024 | 256 µg/mL | 64 µg/mL | 4 µg/mL | 4 µg/mL | ≤ 1 µg/mL | 4 µg/mL | 256 µg/mL | 16 µg/mL |
| Pseudomonas aeruginosa clinical isolate ESP025 | 64 µg/mL | > 1020 µg/mL | 16 µg/mL | 16 µg/mL | 1020 µg/mL | > 1020 µg/mL | 16 µg/mL | > 1020 µg/mL |
| Pseudomonas aeruginosa clinical isolate ESP027 | 64 µg/mL | 1020 µg/mL | 16 µg/mL | 64 µg/mL | ≤ 1 µg/mL | 4 µg/mL | 64 µg/mL | 1020 µg/mL |
| Pseudomonas aeruginosa clinical isolate ESP028 | 256 µg/mL | 1020 µg/mL | 256 µg/mL | 256 µg/mL | 16 µg/mL | 256 µg/mL | 256 µg/mL | 1020 µg/mL |
| Pseudomonas aeruginosa clinical isolate ESP029 | 256 µg/mL | 256 µg/mL | 256 µg/mL | 256 µg/mL | 4 µg/mL | 4 µg/mL | 256 µg/mL | 256 µg/mL |
| Pseudomonas aeruginosa clinical isolate ESP031 | 256 µg/mL | 1020 µg/mL | 256 µg/mL | 256 µg/mL | 1020 µg/mL | 1020 µg/mL | 256 µg/mL | 1020 µg/mL |
| Pseudomonas aeruginosa clinical isolate ESP032 | 256 µg/mL | > 1020 µg/mL | 256 µg/mL | 256 µg/mL | 256 µg/mL | 256 µg/mL | 256 µg/mL | 1020 µg/mL |
| Pseudomonas aeruginosa clinical isolate ESP033 | 256 µg/mL | 256 µg/mL | 256 µg/mL | 256 µg/mL | 16 µg/mL | 64 µg/mL | 256 µg/mL | 64 µg/mL |
| Pseudomonas aeruginosa clinical isolate ESP034 | 256 µg/mL | 1020 µg/mL | 256 µg/mL | 256 µg/mL | 4 µg/mL | 16 µg/mL | 256 µg/mL | 1020 µg/mL |
| Pseudomonas aeruginosa clinical isolate ESP035 | 256 µg/mL | 1020 µg/mL | 64 µg/mL | 256 µg/mL | 256 µg/mL | 256 µg/mL | 256 µg/mL | 256 µg/mL |
| Pseudomonas aeruginosa clinical isolate ESP036 | 256 µg/mL | 64 µg/mL | 256 µg/mL | 256 µg/mL | ≤ 1 µg/mL | 4 µg/mL | 256 µg/mL | 16 µg/mL |
| Pseudomonas aeruginosa clinical isolate ESP037 | 64 µg/mL | 256 µg/mL | 64 µg/mL | 64 µg/mL | 4 µg/mL | 4 µg/mL | 64 µg/mL | 64 µg/mL |
| Pseudomonas aeruginosa clinical isolate ESP038 | 256 µg/mL | 64 µg/mL | 64 µg/mL | 64 µg/mL | ≤ 1 µg/mL | 4 µg/mL | 256 µg/mL | 4 µg/mL |
| Pseudomonas aeruginosa clinical isolate ESP039 | 64 µg/mL | 256 µg/mL | 64 µg/mL | 64 µg/mL | 4 µg/mL | 16 µg/mL | 64 µg/mL | 64 µg/mL |
